Tested on: NPC
Experiment: GFP levels in NPC measured by flow cytometry, KC2 and DLin-MC3-DMA substituted as ionizable lipid
Type: cell-based, human
Conditions: 48 H, ionizable lipid in the Lipid Mix K, over the control Lipid Mix A (FIG. 11)
Excerpt: Two commonly used ionizable lipids, KC2 and DLin-MC3-DMA, were substituted for the ionizable lipid component for Lipid Mixes A and K. NPC were transfected as specified above, and the results at 48 H for GFP Median Fluorescent Intensity via flow cytometry are shown in FIG. 11. Both KC2 and DLin-MC3-DMA (MC3 in the graph) were effective in the Lipid Mix K to enhance GFP expression over the control Lipid Mix A. PNI-IL-1 is 1,17-bis(2-octylcyclopropyl)heptadecan-9-yl 4-(dimethylamino)butanoate HCl).

SMILES	GFP Median Fluorescent Intensity via flow cytometry
CCCCC/C=C\C/C=C\CCCCCCCCC1(CCCCCCCC/C=C\C/C=C\CCCCC)OCC(CCN(C)C)O1 (centres unmarked) [KC2, 2,2-dilinoleyl-4-(2-dimethylaminoethyl)-[1,3]-dioxolane]	effective
CCCCCC=CCC=CCCCCCCCCC(CCCCCCCCC=CCC=CCCCCC)OC(=O)CCCN(C)C (centres unmarked) [DLin-MC3-DMA, heptatriaconta-6,9,28,31-tetraen-19-yl 4-(dimethylamino)butanoate]	effective

— patent US11679159B2, “Compositions for transfecting resistant cell types” (Precision Nanosystems ULC, priority 2018, dated 2023)
